Here are results for four compounds from patent publication US11504369B2, “Cytosine-based TET enzyme inhibitors” (President and Trustees of Bates College, priority 2019, dated 2022).

Each structure is given as a SMILES string. Entries after “also recorded” stand apart in the source; their conditions may differ.

One test has as its target T1, TET1 (Homo sapiens, UniProt Q8NFU7).
T1 construct: purchased Bioscience 50651
Description: Chemiluminescence ELISA of TET1-mediated oxidation of methylated DNA. It is filed as biochemical. To be noted: for TET1 inhibition (in words): compound at 100 μM in ELISA. The protocol:
To determine whether cytosine analogs inhibited TET-mediated oxidation of methylated DNA, the amount of hydroxymethylcytosine in reactions containing TET enzyme alone or TET enzyme and a cytosine analog were determined using chemiluminescence ELISA assays.
Procedure adapted from manual (Bioscience; TET1: 50651, TET2: 50652). Prepare TBST buffer (1× TBS, pH 8.0, containing 0.05% Tween-20). Dilute 4.0× TET Assay Buffer (TAB) to 1.5× TAB and 1.0× TAB evenly with diluted water. Thaw and dilute (5.0 ng/μl for TET1 and 10 ng/μl for TET2) TET enzyme from kit with 1.0× TAB. Dilute primary antibody 100-fold with blocking buffer. Diluted secondary antibody 1000-fold with blocking buffer. Dilute DMSO inhibitor solutions with 1.0× TAB to wanted concentration (ensure solutions are 5% DMSO). To 96-well plate provided, add 200 μl TBST buffer to each well and incubate at room temperature for 15 min. Remove TBST buffer and add 20 μl 1.5× TAB, 10 μl inhibitor solution, 20 μl diluted TET to each well. For controls, add 10 μl 5% DMSO solution and 20 μl 1.0× TAB. Incubate at room temperature for 2 h. Remove reaction solution and wash 3× with TBST buffer (200, 200, and 100 μl). Add 100 μl […] diluted primary antibody and shake at room temperature for 1 h. Remove diluted primary antibody and wash 3× with TBST buffer (200, 200, and 100 μl). Add 100 μl blocking buffer to each well and shake at room temperature for 10 min. Remove blocking buffer. Add 100 μl diluted secondary antibody. Shake at room temperature for 30 min. Remove diluted secondary antibody and wash 3× with TBST buffer (200, 200, and 100 μl). Add 100 μl blocking buffer to each well and shake at room temperature for 10 min. Remove blocking buffer. Combine horseradish peroxidase (HRP) substrate A and HRP substrate B at 1:1 ratio. Add 100 μl of HRP solution to each well. Immediately, read chemiluminescence (BioTek Synergy 2 plate reader).

The subject of the next test is DNMT3a. The experiment in a line: Inhibitory assay for DNMT3a. The test is classed as biochemical. To be noted: concentration of 500 μM.
For a further test, the system named is HT22 cells. Description: Whole genome bisulfite sequencing in HT22 cells. To be noted: 10 μM, 24 hours. The test is classed as cell-based, mouse. On the procedure: Whole genome bisulfite sequencing in HT22 cells was performed. […] Generally, the genome was broken into windows each containing 25 CpGs, and an analysis was performed to determine differentially methylated regions. […] Additionally, the differentially methylated regions (DMRs) were highly associated with DMRs detected for those Tet gene deficient cells/tissue.
HT-22 cells were provided by David Schubert at the Salk Institute (San Diego, Calif.). Cells were cultured in Dulbecco's Modified Eagle Medium (Life Technologies, Carlsbad, Calif.) supplemented with 10% FBS, 100 U/ml penicillin, and 100 μg/ml streptomycin (Life Technologies, Carlsbad, Calif.) at 37° C. and 5% CO2. […]
Cells were lysed and gDNA was extracted (Qiagen, DNeasy), bisulfite converted (Accel-NGS Methyl-Seq DNA Library, Swift), and sequenced (Hudson Alpha Discovery) on the Illumina platform (HiSeq_X10, paired end, 150 bp, 500 million reads per sample). Reads were QC'd by FastQC (v0.11.5), filtered by quality (average quality score <20), Illumina adapters removed, and sequencing primers trimmed using Trim_Galore! […] The filtered and trimmed reads were then mapped to the mouse genome (mm10), deduplicated, and CpG methylation levels extracted using Bismark (v0.19.0). Altered CpG methylation was determined by dividing the mouse genome into ˜850,000 windows, each containing 25 CpG sites. […]

Another test deals with T2, TET2 (Homo sapiens, UniProt Q6N021).
T2 construct: purchased Bioscience 50652
Description: Chemiluminescence ELISA of TET2-mediated oxidation of methylated DNA. The test is classed as biochemical. Conditions: dose-response. Background: ELISA stands for enzyme-linked immunosorbent assay.

T1 sequence (Q8NFU7 whole entry): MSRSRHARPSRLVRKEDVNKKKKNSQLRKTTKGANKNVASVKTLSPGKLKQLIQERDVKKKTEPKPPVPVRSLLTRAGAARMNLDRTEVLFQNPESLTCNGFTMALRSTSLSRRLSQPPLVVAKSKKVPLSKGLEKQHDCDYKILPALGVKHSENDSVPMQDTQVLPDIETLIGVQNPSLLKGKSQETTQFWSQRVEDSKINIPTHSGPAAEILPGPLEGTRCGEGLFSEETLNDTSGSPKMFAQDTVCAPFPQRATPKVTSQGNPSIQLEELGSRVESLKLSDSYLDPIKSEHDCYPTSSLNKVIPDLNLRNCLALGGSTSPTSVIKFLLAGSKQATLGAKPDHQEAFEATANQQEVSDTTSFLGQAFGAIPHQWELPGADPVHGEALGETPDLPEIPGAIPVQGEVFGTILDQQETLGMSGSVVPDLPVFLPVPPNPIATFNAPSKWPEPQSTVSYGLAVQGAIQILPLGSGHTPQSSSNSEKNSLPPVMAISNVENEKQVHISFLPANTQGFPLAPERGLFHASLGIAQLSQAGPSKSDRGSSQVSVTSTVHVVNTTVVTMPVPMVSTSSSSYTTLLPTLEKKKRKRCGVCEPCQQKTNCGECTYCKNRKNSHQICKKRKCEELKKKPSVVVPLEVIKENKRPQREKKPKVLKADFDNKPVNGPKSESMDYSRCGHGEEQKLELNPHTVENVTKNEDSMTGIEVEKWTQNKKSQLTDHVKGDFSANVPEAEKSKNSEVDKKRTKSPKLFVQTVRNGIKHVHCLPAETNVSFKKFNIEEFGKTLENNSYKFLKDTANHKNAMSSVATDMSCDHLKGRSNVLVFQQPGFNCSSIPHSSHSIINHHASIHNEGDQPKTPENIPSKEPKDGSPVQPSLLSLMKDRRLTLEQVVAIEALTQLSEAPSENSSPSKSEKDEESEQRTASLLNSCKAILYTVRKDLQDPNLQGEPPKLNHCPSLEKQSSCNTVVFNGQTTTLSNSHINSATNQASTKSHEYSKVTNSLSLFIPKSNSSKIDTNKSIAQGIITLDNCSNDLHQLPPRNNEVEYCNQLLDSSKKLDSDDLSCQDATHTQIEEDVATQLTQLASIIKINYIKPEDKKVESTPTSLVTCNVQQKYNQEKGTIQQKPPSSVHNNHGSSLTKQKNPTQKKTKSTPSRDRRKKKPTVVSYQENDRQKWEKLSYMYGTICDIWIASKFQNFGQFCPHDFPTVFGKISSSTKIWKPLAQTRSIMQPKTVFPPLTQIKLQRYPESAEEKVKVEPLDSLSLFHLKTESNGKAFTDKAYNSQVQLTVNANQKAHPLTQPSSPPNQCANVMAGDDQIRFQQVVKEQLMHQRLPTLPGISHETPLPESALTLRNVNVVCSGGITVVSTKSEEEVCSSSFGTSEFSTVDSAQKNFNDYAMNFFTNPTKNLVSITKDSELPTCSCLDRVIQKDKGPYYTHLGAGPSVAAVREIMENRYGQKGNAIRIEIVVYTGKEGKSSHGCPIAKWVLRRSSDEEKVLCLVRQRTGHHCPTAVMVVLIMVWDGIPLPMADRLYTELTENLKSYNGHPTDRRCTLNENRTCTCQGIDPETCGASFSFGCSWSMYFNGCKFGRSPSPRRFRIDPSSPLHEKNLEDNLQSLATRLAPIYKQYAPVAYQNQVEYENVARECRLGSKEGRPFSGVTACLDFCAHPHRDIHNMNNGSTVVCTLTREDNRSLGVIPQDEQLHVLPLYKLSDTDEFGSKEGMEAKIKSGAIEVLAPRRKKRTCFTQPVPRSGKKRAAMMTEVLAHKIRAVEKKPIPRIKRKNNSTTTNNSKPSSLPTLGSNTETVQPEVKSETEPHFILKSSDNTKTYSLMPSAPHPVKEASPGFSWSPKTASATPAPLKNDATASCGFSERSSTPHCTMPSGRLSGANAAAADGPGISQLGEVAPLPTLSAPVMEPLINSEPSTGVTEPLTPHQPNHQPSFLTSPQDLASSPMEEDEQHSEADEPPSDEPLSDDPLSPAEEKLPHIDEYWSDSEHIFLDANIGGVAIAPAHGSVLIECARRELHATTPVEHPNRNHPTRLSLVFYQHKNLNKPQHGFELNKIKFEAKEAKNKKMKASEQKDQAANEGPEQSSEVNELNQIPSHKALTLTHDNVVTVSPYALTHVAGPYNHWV
Description for TET2: Procedure adapted from manual (Bioscience; TET1: 50651, TET2: 50652). Prepare TBST buffer (1× TBS, pH 8.0, containing 0.05% Tween-20). […] Dilute primary antibody 100-fold with blocking buffer. Diluted secondary antibody 1000-fold with blocking buffer. […] To 96-well plate provided, add 200 μl TBST buffer to each well and incubate at room temperature for 15 min. Remove TBST buffer and add 20 μl 1.5× TAB, 10 μl inhibitor solution, 20 μl diluted TET to each well. For controls, add 10 μl 5% DMSO solution and 20 μl 1.0× TAB. Incubate at room temperature for 2 h. Remove reaction solution and wash 3× with TBST buffer (200, 200, and 100 μl). Add 100 μl blocking buffer 53 μl diluted primary antibody and shake at room temperature for 1 h. Remove diluted primary antibody and wash 3× with TBST buffer (200, 200, and 100 μl). Add 100 μl blocking buffer to each well and shake at room temperature for 10 min. Remove blocking buffer. Add 100 μl diluted secondary antibody. Shake at room temperature for 30 min. […] Immediately, read chemiluminescence (BioTek Synergy 2 plate reader).

In the case of `Nc1nc(=O)n(-c2ccc(-c3ccccc3)cc2)cc1Cl` [Bobcat219, 1-([1,1′-biphenyl]-4-yl)-4-amino-5-chloropyrimidin-2(1H)-one], the “TET1 inhibition (in words)” value on TET1 is “significantly reduced TET1 inhibition”.

Consider `Nc1nc(=O)n(-c2ccccc2-c2ccccc2)cc1Cl` [Bobcat337, 1-([1,1′-biphenyl]-2-yl)-4-amino-5-chloropyrimidin-2(1H)-one], for which the “TET1 inhibition (in words)” value at TET1 is on record as “significantly reduced TET1 inhibition”.

As a reminder, the IC50 is the concentration needed to halve the response being measured. In the case of `Nc1nc(=O)n(-c2cccc(-c3ccccc3)c2)cc1Cl` [Bobcat339, 1-([1,1′-biphenyl]-3-yl)-4-amino-5-chloropyrimidin-2(1H)-one], the “inhibition of DNMT3a” value in the test with DNMT3a is listed as “failing to show substantial inhibition; also recorded: but not DNMT3a”. Further, on TET1, the “TET1 inhibition (in words)” value is given as “significantly enhanced activity”. In addition, the “TET1 inhibition (in words)” value at TET1 (listed as 3-biphenyl) was “significantly increased TET1 inhibition”. Moreover, the IC50 at TET1 (dose-response, N=3) came to 33 µM. In addition, in the test on HT22 cells, the “differentially methylated regions (windows of 25 CpGs)” value is “A thousand such regions were observed, most of which are hypermethylated” and the “global CpG methylation” value is recorded as “significant change in global CpG methylation”.

Turning to `Nc1nc(=O)n(-c2ccccc2)cc1Cl` [Bobcat216, 4-amino-5-chloro-1-phenylpyrimidin-2(1H)-one], the IC50 on TET2 turned out to be 98 µM.
